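Cells were grown in 96-well plates and exposed to each compound for 48 hours at five concentrations; endpoints were interpolated linearly between bracketing concentrations, or set to the highest concentration if not reached. Here, GI50 denotes the concentration required for 50% inhibition of growth. TGI marks complete inhibition of growth.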
Assays:
Assay in all cases: NCI-60 cell line screen, 48 h
[1] = system: IGROV1 ovarian
[2] = system: KM12 colon
[3] = system: U251 CNS
[4] = system: DU-145 prostate
[5] = system: HOP-92 NSCLC
[6] = system: MCF7 breast
[7] = system: HS 578T breast
[8] = system: MALME-3M melanoma
[9] = system: HCT-15 colon
[10] = system: SNB-19 CNS

For `CCN(CCO)CC1COc2ccccc2O1` (configuration not stated), the TGI [1] was > 100 µM, the TGI [2] was > 100 µM and the TGI [3] was > 100 µM. For the same compound, the TGI [4] was > 100 µM, the TGI [5] was > 100 µM and the TGI [6] was > 100 µM. For the same compound, the TGI [7] was > 100 µM, the TGI [8] was > 100 µM and the TGI [9] was > 100 µM.
`COC(=O)[C@]12CC[C@H]3CN(C(=O)OCc4ccccc4)[C@H]([C@H]31)[C@H](c1ccco1)N2S(=O)(=O)c1ccc(C)cc1` was tested, and the TGI [1] was 57.1 µM, the TGI [2] was 38.5 µM and the TGI [10] was > 100 µM. The TGI [3] was 71.4 µM, the TGI [4] was > 100 µM and the TGI [5] was 56.1 µM. The TGI [6] was 42 µM, the TGI [7] was > 100 µM and the TGI [8] was 38.3 µM. The TGI [9] was 30.8 µM.
With `C=CCOC(=O)CC[N+]1=CCC(c2ccccc2)(c2ccccc2)O1` the TGI [1] was > 100 µM, the TGI [2] was > 100 µM and the TGI [10] was > 100 µM. For the same compound, the TGI [3] was > 100 µM, the TGI [4] was > 100 µM and the TGI [5] was > 100 µM. For the same compound, the TGI [6] was > 100 µM, the TGI [7] was > 100 µM and the TGI [9] was > 100 µM.
For `COC(=O)c1c2c(cc3c1CC1(C3)Cc3cc4c(c(C(=O)OC)c3C1)CCCC4)CCCC2`, the TGI [1] was > 100 µM, the TGI [2] was > 100 µM and the TGI [3] was > 100 µM. For the same compound, the TGI [5] was > 100 µM, the TGI [6] was > 100 µM and the TGI [7] was > 100 µM. The TGI [8] was > 100 µM and the TGI [9] was > 100 µM.
Work on `COc1ccc2cc(-c3ccc(-c4ccc(C(=N)N)s4)s3)ccc2c1` yielded a GI50 [1] of 2.27 µM, a TGI [1] of 5.45 µM and a GI50 [2] of 2.06 µM. The TGI [2] was 4.68 µM, the GI50 [10] was 2.13 µM and the TGI [10] was > 100 µM. It also gave a GI50 [4] of 1.7 µM, a TGI [4] of 3.32 µM and a GI50 [7] of 16.6 µM. It also gave a TGI [7] of 50 µM, a GI50 [8] of 3.32 µM and a TGI [8] of 11.5 µM. The GI50 [9] was 1.89 µM and the TGI [9] was 3.7 µM.
With `O=C(c1cc2ccccc2cc1O)N1CCCCC1` the TGI [1] was 50 µM, the TGI [2] was > 100 µM and the TGI [10] was > 100 µM. The TGI [3] was > 100 µM, the TGI [4] was > 100 µM and the TGI [5] was 43.3 µM. The TGI [6] was > 100 µM, the TGI [7] was > 100 µM and the TGI [9] was > 100 µM.
`O=C(CNc1ccccc1Cl)Nn1c(-c2ccccc2)nc2ccccc2c1=O` was tested, and the TGI [1] was 75.4 µM, the TGI [2] was 87.1 µM and the TGI [10] was > 10 µM. For the same compound, the TGI [3] was 33 µM, the TGI [4] was > 100 µM and the TGI [5] was 29.4 µM. The TGI [6] was 31.4 µM and the TGI [7] was 89.5 µM.
`O=C1C[C@H](Sc2ccccc2)C2(OCCO2)[C@@H](Sc2ccccc2)C1` was tested, and the TGI [1] was 3.49 µM, the TGI [2] was 7.36 µM and the TGI [10] was > 43.6 µM. The TGI [3] was 6.76 µM, the TGI [4] was 14.1 µM and the TGI [5] was 5.74 µM. It also gave a TGI [6] of 6.01 µM, a TGI [7] of 5.85 µM and a TGI [8] of 7.81 µM.
`CN(C)c1ccc(C=C2N=C(c3ccccc3)N(c3cc(C(=O)c4ccccc4)ccc3N3C(=O)/C(=C/c4ccc(N(C)C)cc4)N=C3c3ccccc3)C2=O)cc1` was tested, and the TGI [1] was > 100 µM, the TGI [2] was > 100 µM and the TGI [10] was > 100 µM. The TGI [3] was 29.5 µM, the TGI [4] was > 100 µM and the TGI [5] was > 100 µM. The TGI [6] was > 100 µM, the TGI [7] was > 100 µM and the TGI [9] was > 100 µM.
`BrC/C=C/C[P+](c1ccccc1)(c1ccccc1)c1ccccc1` was tested, and the TGI [1] was > 100 µM, the TGI [2] was 14.7 µM and the TGI [10] was > 100 µM. For the same compound, the TGI [3] was 87 µM, the TGI [5] was 36.1 µM and the TGI [8] was > 100 µM.
With `Cc1nn(C(=O)Cc2ccccc2)c2c1C(c1ccc(O)cc1)SC(N)=N2` (configuration not stated) the TGI [1] was > 100 µM, the TGI [2] was > 100 µM and the TGI [10] was > 100 µM. For the same compound, the TGI [4] was > 100 µM, the TGI [6] was > 100 µM and the TGI [7] was > 100 µM. The TGI [8] was > 100 µM and the TGI [9] was > 100 µM.
`O=C(NCCN1CCOCC1)c1ccc2cc(C(=O)N3CC(CCl)c4ccc([N+](=O)[O-])cc43)[nH]c2c1` (configuration not stated) was tested, and the TGI [1] was > 100 µM, the TGI [2] was > 100 µM and the TGI [10] was 28.8 µM. It also gave a TGI [3] of 57.8 µM, a TGI [4] of 49.3 µM and a TGI [5] of 38.4 µM. The TGI [6] was > 100 µM, the TGI [7] was 52.4 µM and the TGI [9] was > 100 µM.
In the case of `COc1cc(NS(C)(=O)=O)ccc1N1Cc2cnc3ccc4[nH]c(C)cc1c4c23`, the TGI [1] is reported as > 100 µM, the TGI [2] is reported as > 100 µM and the TGI [10] is reported as 32.7 µM. The TGI [3] was > 100 µM, the TGI [4] was > 100 µM and the TGI [5] was > 100 µM. For the same compound, the TGI [6] was > 100 µM, the TGI [7] was > 100 µM and the TGI [9] was > 100 µM.
`C/C=C/C=C/c1nc(C#N)c(N)o1` was tested, and the TGI [1] was > 100 µM, the TGI [10] was > 100 µM and the TGI [3] was > 100 µM. The TGI [4] was > 100 µM, the TGI [5] was > 100 µM and the TGI [6] was > 100 µM. The TGI [7] was > 100 µM, the TGI [8] was > 100 µM and the TGI [9] was > 100 µM.
In the case of `N=S(c1ccccc1)c1ccccc1[N+](=O)[O-]` (configuration not stated), the TGI [1] is reported as 32.9 µM, the TGI [2] is reported as 32.7 µM and the TGI [10] is reported as 35.2 µM. It also gave a TGI [3] of 31.2 µM, a TGI [8] of 30.1 µM and a TGI [9] of 30.4 µM.
For `C=CCNC(=S)/N=C/c1c(O)c2ccccc2oc1=O`, the TGI [1] was > 100 µM, the TGI [2] was > 100 µM and the TGI [10] was > 100 µM. For the same compound, the TGI [3] was > 100 µM, the TGI [5] was > 100 µM and the TGI [8] was 96 µM. For the same compound, the TGI [9] was > 100 µM.
`CCCCC1c2c([nH]c3ccccc23)C2C(=O)N(c3ccc(OC)cc3)C(=O)C2C1CCC` (configuration not stated) was tested, and the TGI [1] was > 10 µM, the TGI [2] was 5.65 µM and the TGI [10] was > 10 µM. The TGI [3] was > 10 µM, the TGI [4] was > 10 µM and the TGI [5] was 7.86 µM. For the same compound, the TGI [7] was 4.81 µM, the TGI [8] was 9.42 µM and the TGI [9] was > 10 µM.
`O=c1ccc2cc3ccc4cccc5ccc(c2o1)c3c45` was tested, and the TGI [1] was > 100 µM, the TGI [10] was > 100 µM and the TGI [3] was 31.1 µM. The TGI [5] was > 100 µM, the TGI [8] was > 100 µM and the TGI [9] was > 100 µM.
Compound `COc1ccc2nc3cc(Cl)ccc3c(NCCCNCCCNc3c4ccc(Cl)cc4nc4ccc(OC)cc34)c2c1` has a TGI [10] of 0.314 µM, a TGI [3] of 0.13 µM and a TGI [4] of 0.156 µM. It also gave a TGI [5] of 0.347 µM, a TGI [6] of 0.157 µM and a TGI [8] of 1.22 µM. It also gave a TGI [9] of 1.06 µM.
`CCN(C(=S)N[C@@H](Cc1ccccc1)C(=O)N[C@@H](CC(C)C)C(=O)OC)c1ccccc1` was tested, and the TGI [1] was > 100 µM, the TGI [2] was > 100 µM and the TGI [10] was > 100 µM. The TGI [3] was > 100 µM, the TGI [4] was > 100 µM and the TGI [5] was > 100 µM. For the same compound, the TGI [6] was > 100 µM, the TGI [8] was > 100 µM and the TGI [9] was > 100 µM.
In the case of `Cc1csc(-c2cn(C)c3c2C(=O)C(N)=CC3=O)n1`, the TGI [1] is reported as 13.4 µM, the TGI [2] is reported as > 100 µM and the TGI [10] is reported as > 100 µM. For the same compound, the TGI [3] was > 100 µM, the TGI [4] was > 100 µM and the TGI [5] was > 100 µM. The TGI [6] was > 100 µM, the TGI [7] was > 80.2 µM and the TGI [9] was > 100 µM.
In the case of `Cc1cc2[nH]c3[nH]c(=O)[nH]c(=O)c3c2cc1C`, the TGI [1] is reported as > 100 µM, the TGI [2] is reported as > 100 µM and the TGI [10] is reported as > 100 µM. For the same compound, the TGI [4] was > 100 µM, the TGI [5] was > 100 µM and the TGI [6] was > 100 µM. For the same compound, the TGI [7] was > 100 µM, the TGI [8] was > 100 µM and the TGI [9] was > 100 µM.
In the case of `COc1ccc(C#CC(=O)O)c(OC)c1`, the TGI [2] is reported as > 100 µM, the TGI [10] is reported as > 100 µM and the TGI [3] is reported as > 100 µM. For the same compound, the TGI [4] was > 100 µM, the TGI [5] was > 100 µM and the TGI [6] was > 100 µM. The TGI [7] was > 100 µM, the TGI [8] was > 100 µM and the TGI [9] was > 100 µM.

Source: PubChem BioAssay (NCI)
